Source: paper PMC5267519, “Evaluation of a Novel Renewable Hepatic Cell Model for Prediction of Clinical CYP3A4 Induction Using a Correlation-Based Relative Induction Score Approach” (Drug Metabolism and Disposition, 2017)
Read-outs that look alike come from different tables or passages of the source.

Key:
CYP3A4 [1] = details: RIS calibration curve
Description: The resulting fitting equation was used to calculate predicted in vivo AUC change for each compound. […] Prediction accuracy using HepatoCells was also compared with prediction accuracy using primary human hepatocytes.

CYP3A4 mRNA = test: Concentration-dependent CYP3A4 mRNA induction in HepatoCells; details: for Emax / EC50: CYP3A4 mRNA fold increase, NI = no induction observed at tested concentration; for Emax: 3 consecutive days treatment, quinidine: only observed maximum fold induction; for RIS Based on mRNA: RIS = (Emax × Cmax,ub)/(EC50 + Cmax,ub); for EC50: human, nominal concentrations; for RIS Based on mRNA, Mean: mean of lots 2B, 3A, 3B; for CYP3A4 mRNA expression induction response (in words): three lots of HepatoCells, eight concentrations
Description: Cryopreserved HepatoCells were thawed quickly in a 37°C water bath and transferred to Corning Culture Medium for HepatoCells supplemented with 10% fetal bovine serum and Pen/Strep (plating medium). After the cryo-freezing media was removed by centrifugation at 150g for 10 minutes, the cell pellet was resuspended in plating media and cell count was performed with trypan blue. Cells were then seeded in a Corning BioCoat Collagen I–coated plate (500,000 cells/well in 24-well plate or 80,000 cells/well in 96-well plate), and plates were incubated in a 37°C incubator with 5% CO2. […] Cells were then returned to the incubator for overnight culture.
Stock solutions of test compounds were prepared by dissolving each compound in DMSO and serially diluting the solutions in DMSO. Final working solutions were freshly prepared daily by diluting the 1000× stock solutions in culture medium. Three lots of HepatoCells culture were treated with eight concentrations of test compounds. Both enzymatic activity (testosterone 6β hydroxylase activity) and mRNA expression were measured as endpoints using LC-MS/MS and real-time reverse-transcription polymerase chain reaction, respectively.
Only curve fitting with correlation coefficient (R^2) > 0.85 is accepted. At high concentrations for some compounds, if toxicity or insolubility becomes obvious, such data are excluded from curve fitting.

CYP3A4 [2] = details: clinical DDI; decrease in AUC of victim drug (midazolam or nonmidazolam); ref Zhang et al., 2014; cited from earlier work
CYP3A4 [3] = details: for RIS Based on Enzyme Activity: RIS = (Emax × Cmax,ub)/(EC50 + Cmax,ub); for RIS Based on Enzyme Activity, Mean: mean of lots 2B, 3A, 3B; for CYP3A4 enzyme activity induction response (in words): three lots of HepatoCells, eight concentrations
[4] = range over named compounds and three lots

## NC(=O)N1c2ccccc2C=Cc2ccccc21 [Carbamazepine]
CYP3A4 [1]; Lot 2B HepatoCells
  Predicted % AUC Change Based on Activity: 92%
  Predicted % AUC Change Based on mRNA: 86%
CYP3A4 [1]; Lot 3A HepatoCells
  Predicted % AUC Change Based on Activity: 92%
  Predicted % AUC Change Based on mRNA: 87%
CYP3A4 [1]; Lot 3B HepatoCells
  Predicted % AUC Change Based on Activity: 87%
  Predicted % AUC Change Based on mRNA: 95%
CYP3A4 mRNA; Lot 2B HepatoCells
  Emax: 16 Fold
CYP3A4 mRNA; Lot 2B
  RIS Based on mRNA: 0.76
CYP3A4 mRNA; Lot 3A HepatoCells
  Emax: 10 Fold
CYP3A4 mRNA; Lot 3A
  RIS Based on mRNA: 0.77
CYP3A4 mRNA; Lot 3B HepatoCells
  Emax: 14 Fold
CYP3A4 mRNA; Lot 3B
  RIS Based on mRNA: 1.3
CYP3A4 mRNA; EC50, Lot 2B HepatoCells
  EC50: 108 µM
CYP3A4 mRNA; EC50, Lot 3A HepatoCells
  EC50: 65 µM
CYP3A4 mRNA; EC50, Lot 3B HepatoCells
  EC50: 53 µM
CYP3A4 mRNA
  RIS Based on mRNA, Mean: 0.9
CYP3A4 mRNA; [4]
  RIS values based on CYP3A4 mRNA level (range stated for group of compounds): 0.8–25
CYP3A4 [2]
  Observed % AUC Change: 94%
CYP3A4 [3]; Lot 2B
  RIS Based on Enzyme Activity: 0.67
CYP3A4 [3]; Lot 3A
  RIS Based on Enzyme Activity: 0.8
CYP3A4 [3]; Lot 3B
  RIS Based on Enzyme Activity: 0.9
CYP3A4 [3]
  RIS Based on Enzyme Activity, Mean: 0.8
CYP3A4 [3]; [4]
  RIS values based on enzyme activity (range stated for group of compounds): 0.7–24

## C[C@H]1O[C@@H](O[C@H]2[C@@H](O)C[C@H](O[C@H]3[C@@H](O)C[C@H](O[C@H]4CC[C@@]5(C)[C@H](CC[C@@H]6[C@@H]5C[C@@H](O)[C@]5(C)[C@@H](C7=CC(=O)OC7)CC[C@]65O)C4)O[C@@H]3C)O[C@@H]2C)C[C@H](O)[C@@H]1O [Digoxin]
CYP3A4 mRNA
  CYP3A4 mRNA expression induction response (in words): no induction response
CYP3A4 [3]
  CYP3A4 enzyme activity induction response (in words): no induction response

## CCOC(=O)c1ncn2c1CN(C)C(=O)c1cc(F)ccc1-2 [Flumazenil]
CYP3A4 mRNA
  CYP3A4 mRNA expression induction response (in words): no induction response
CYP3A4 [3]
  CYP3A4 enzyme activity induction response (in words): no induction response

## CN(Cc1cnc2nc(N)nc(N)c2n1)c1ccc(C(=O)N[C@@H](CCC(=O)O)C(=O)O)cc1 [Methotrexate]
CYP3A4 mRNA
  CYP3A4 mRNA expression induction response (in words): no induction response
CYP3A4 [3]
  CYP3A4 enzyme activity induction response (in words): no induction response

## O=C1C(CC[S+]([O-])c2ccccc2)C(=O)N(c2ccccc2)N1c1ccccc1 (stereo not shown) [Sulfinpyrazone]
CYP3A4 mRNA; Lot 2B HepatoCells
  Emax: 31 Fold
CYP3A4 mRNA; Lot 2B
  RIS Based on mRNA: 1.2
CYP3A4 mRNA; Lot 3A HepatoCells
  Emax: 53 Fold
CYP3A4 mRNA; Lot 3A
  RIS Based on mRNA: 1.8
CYP3A4 mRNA; Lot 3B HepatoCells
  Emax: 38 Fold
CYP3A4 mRNA; Lot 3B
  RIS Based on mRNA: 1.1
CYP3A4 mRNA; EC50, Lot 2B HepatoCells
  EC50: 23 µM
CYP3A4 mRNA; EC50, Lot 3A HepatoCells
  EC50: 28 µM
CYP3A4 mRNA; EC50, Lot 3B HepatoCells
  EC50: 32 µM
CYP3A4 mRNA
  RIS Based on mRNA, Mean: 1.4
CYP3A4 [3]; Lot 2B
  RIS Based on Enzyme Activity: 1.5
CYP3A4 [3]; Lot 3A
  RIS Based on Enzyme Activity: 1.4
CYP3A4 [3]; Lot 3B
  RIS Based on Enzyme Activity: 1.2
CYP3A4 [3]
  RIS Based on Enzyme Activity, Mean: 1.3
